Values belong to the molecule of their own block, whether it stands above or below them. Calls of active or inactive are those of the source. Rule as the data show it, for most assays here: actives have a measured EC50 and inactives only a lower limit.
Assays:
[1] = target: T1, Zinc finger protein mex-5 (Caenorhabditis elegans, UniProt Q9XUB2); experiment: potency of MEX-5 RNA-binding blockers – biochemical, C. elegans, fluorescence polarization, dose response (AID 1960)
T1 sequence (Q9XUB2 whole entry): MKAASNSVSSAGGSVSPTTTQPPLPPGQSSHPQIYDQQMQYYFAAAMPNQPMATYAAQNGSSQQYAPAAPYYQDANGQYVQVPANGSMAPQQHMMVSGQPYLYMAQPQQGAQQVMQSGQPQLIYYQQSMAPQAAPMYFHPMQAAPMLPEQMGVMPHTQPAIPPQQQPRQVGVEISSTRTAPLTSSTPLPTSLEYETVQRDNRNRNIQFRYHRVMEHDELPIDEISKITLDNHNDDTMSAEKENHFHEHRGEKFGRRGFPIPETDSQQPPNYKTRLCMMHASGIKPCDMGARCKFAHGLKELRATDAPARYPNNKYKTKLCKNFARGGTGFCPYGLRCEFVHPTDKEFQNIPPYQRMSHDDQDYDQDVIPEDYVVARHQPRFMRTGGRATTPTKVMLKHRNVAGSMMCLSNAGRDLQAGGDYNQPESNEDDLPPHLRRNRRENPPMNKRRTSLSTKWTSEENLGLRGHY

[2] = target: T2, RNA-binding protein pos-1 (Caenorhabditis elegans, UniProt G5EF15); experiment: disruptors of C. elegans POS-1 RNA interaction – biochemical, fluorescence polarization, dose response (AID 1964);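 also: purified POS-1 fused to maltose binding protein made in E. coli; potency of compounds blocking POS-1 binding to fluorescent RNA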
T2 sequence (G5EF15 whole entry): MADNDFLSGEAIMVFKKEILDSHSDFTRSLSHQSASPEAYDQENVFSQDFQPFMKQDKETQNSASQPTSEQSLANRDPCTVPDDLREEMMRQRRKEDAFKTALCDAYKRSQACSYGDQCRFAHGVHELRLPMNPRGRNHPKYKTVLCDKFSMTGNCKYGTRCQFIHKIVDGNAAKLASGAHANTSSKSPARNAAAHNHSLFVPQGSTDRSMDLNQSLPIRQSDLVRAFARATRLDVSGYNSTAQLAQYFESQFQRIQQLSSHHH

[3] = target: T3, Rac GTPase-activating protein 1 (Homo sapiens, UniProt Q9H0H5); experiment: blockers of MgcRacGAP-driven Rac1 GTP hydrolysis – biochemical, ADP Hunter fluorescence, primary and confirmatory, confirmation (AID 624330); assay type: functional
T3 sequence (Q9H0H5 whole entry): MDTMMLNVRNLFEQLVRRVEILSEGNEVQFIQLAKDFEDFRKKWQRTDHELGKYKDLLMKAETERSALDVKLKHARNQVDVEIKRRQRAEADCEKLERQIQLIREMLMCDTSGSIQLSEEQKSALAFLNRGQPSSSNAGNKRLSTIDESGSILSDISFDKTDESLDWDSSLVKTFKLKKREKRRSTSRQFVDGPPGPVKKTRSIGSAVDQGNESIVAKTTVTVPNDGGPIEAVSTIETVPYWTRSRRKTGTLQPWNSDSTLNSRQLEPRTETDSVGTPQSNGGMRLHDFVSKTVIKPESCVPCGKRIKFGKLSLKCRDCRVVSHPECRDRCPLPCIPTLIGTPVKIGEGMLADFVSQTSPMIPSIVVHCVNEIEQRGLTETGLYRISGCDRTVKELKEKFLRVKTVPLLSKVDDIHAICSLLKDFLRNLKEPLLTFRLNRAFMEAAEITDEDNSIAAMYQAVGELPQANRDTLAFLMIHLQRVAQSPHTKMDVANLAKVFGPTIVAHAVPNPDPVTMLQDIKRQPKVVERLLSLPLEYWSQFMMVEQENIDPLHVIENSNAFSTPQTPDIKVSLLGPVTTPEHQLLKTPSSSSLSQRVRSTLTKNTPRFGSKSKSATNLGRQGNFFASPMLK

[4] = target: T4, Corticotropin-releasing factor receptor 2/Corticotropin-releasing factor-binding protein (Homo sapiens, UniProt P24387+Q13324); experiment: Dose Response confirmation of uHTS hits for small molecule antagonists of the CRF-binding protein and CRF-R2 receptor complex.; assay type: functional; conditions: read-out: IC50_Mean
T4 sequence (Q13324 whole entry): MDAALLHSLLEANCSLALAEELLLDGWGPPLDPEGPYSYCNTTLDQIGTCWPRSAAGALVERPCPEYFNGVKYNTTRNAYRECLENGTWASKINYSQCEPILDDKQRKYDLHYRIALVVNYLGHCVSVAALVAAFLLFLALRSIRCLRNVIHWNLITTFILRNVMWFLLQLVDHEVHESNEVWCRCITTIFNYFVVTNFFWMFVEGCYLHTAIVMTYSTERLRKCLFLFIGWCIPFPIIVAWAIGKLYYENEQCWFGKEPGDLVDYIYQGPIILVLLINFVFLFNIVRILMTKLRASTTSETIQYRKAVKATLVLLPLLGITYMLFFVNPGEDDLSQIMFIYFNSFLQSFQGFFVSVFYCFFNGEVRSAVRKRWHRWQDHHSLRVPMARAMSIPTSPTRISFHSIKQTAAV
T4 sequence (P24387 whole entry): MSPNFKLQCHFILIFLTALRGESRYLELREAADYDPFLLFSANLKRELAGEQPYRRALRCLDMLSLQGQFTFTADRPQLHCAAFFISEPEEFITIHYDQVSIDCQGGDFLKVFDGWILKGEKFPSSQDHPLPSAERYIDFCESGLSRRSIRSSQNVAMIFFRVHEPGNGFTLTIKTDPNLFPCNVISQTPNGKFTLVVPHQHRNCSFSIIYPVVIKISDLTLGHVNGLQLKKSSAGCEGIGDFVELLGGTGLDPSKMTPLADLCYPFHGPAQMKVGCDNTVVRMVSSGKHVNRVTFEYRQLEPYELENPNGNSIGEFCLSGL

[5] = target: T4, Corticotropin-releasing factor receptor 2/Corticotropin-releasing factor-binding protein; experiment: activators of CRF receptor 2 with binding protein – uHTS hits, confirmation (AID 602473); assay type: functional; conditions: read-out: EC50_Mean
cells [6] = assay type: functional, cell-based
cells [7] = assay type: functional, cell-based; remark: listed apart in the source
[8] = target: T5, Heat shock factor protein 1 (Mus musculus, UniProt P38532); experiment: enhancement of HSF1-driven luciferase signal – cell-based, NIH3T3, luminescence, dose retest, confirmation (AID 435004); assay type: functional;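 also: stress induced by proteasome inhibitor MG132 added 30 min after compound; luciferase reporter driven by HSF1 response element in NIH3T3 cells; actives raise luminescence as potentiators of the MG132 stress response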
T5 sequence (P38532 whole entry): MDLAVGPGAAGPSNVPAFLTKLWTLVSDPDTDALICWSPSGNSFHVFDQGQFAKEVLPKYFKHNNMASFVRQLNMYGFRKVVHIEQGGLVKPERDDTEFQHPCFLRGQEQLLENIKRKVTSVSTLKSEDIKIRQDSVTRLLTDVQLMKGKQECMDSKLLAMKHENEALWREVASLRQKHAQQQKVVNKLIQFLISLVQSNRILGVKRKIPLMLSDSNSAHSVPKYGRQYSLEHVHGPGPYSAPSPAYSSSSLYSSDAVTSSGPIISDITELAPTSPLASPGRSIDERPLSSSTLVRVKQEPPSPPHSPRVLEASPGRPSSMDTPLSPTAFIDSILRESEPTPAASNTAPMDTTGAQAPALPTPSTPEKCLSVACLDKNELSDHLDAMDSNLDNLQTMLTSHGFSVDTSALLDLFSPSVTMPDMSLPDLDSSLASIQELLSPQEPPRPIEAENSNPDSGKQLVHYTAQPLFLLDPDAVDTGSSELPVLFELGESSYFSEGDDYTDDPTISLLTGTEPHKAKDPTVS

[9] = target: T5, Heat shock factor protein 1; experiment: decrease of HSF1-responsive luciferase luminescence – cell-based, NIH3T3, dose retest, confirmation (AID 2382); assay type: functional;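 also: NIH3T3 fibroblasts with HSF1-driven luciferase reporter stressed by proteasome inhibitor MG132; luminescence from HSF1-driven luciferase expression after 8 hours of MG132 stress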
[10] = viability of uninfected HEp-2 cells – cell-based, HTS, cytotoxicity control for RSV inhibitor project, dose response (AID 2410); assay type: functional; conditions: human respiratory syncytial virus

SMILES: CC(=O)N1CCc2c(sc(NC(=O)C3CCCCC3)c2C(N)=O)C1
EC50 [1]: 30.1 µM (active) | EC50 [2]: 33.4 µM (active)

SMILES: COc1ccc(-c2cccc(NS(=O)(=O)c3cccc([N+](=O)[O-])c3)c2)nn1
IC50 [4]: > 47.1 µM (inactive) | EC50 [5]: > 53 µM (inactive)

SMILES: COc1ccc(N(CC(=O)Nc2cc(OC)ccc2OC)S(=O)(=O)c2c(C)noc2C)cc1
EC50 (cells [6]): > 350 µM (not active) | EC50 (cells [7]): > 350 µM (not active)

SMILES: c1ccc(-c2nc(CSc3n[nH]c(-c4cccs4)n3)cs2)cc1
EC50 [8]: > 260 µM (inactive)

SMILES: COc1cc(-c2nnc(CSc3nnc(Nc4ccc(C(C)C)cc4)s3)o2)cc(OC)c1OC
EC50 [8]: 31.8 µM (active)

SMILES: Cc1nnc(-c2ccccc2)nc1N(C)C
EC50 (cells [6]): > 350 µM (not active) | EC50 (cells [7]): > 350 µM (not active)

SMILES: CN(c1ccc(O)cc1)c1nc(-c2cccs2)cs1
IC50 [3]: 70.4 µM (active)

SMILES: Cn1c(CCNC(=O)c2ccco2)nc2cc(NC(=O)c3ccco3)ccc21
IC50 [4]: > 47.1 µM (inactive) | EC50 [5]: > 53 µM (inactive)

SMILES: Cc1ccccc1NC(=O)c1ccccc1O
EC50 (cells [6]): 50.3 µM (active) | EC50 (cells [7]): > 350 µM (not active)

SMILES: CC1(C)CC2CC(C)(CN2/C=C2/CCCCC2=O)C1 (stereo unspecified)
IC50 [4]: > 47.1 µM (inactive) | EC50 [5]: > 53 µM (inactive)

SMILES: Cc1ccc(S(=O)(=O)N2CCOC23CCN(C(=O)c2cc(Cl)ccc2Cl)CC3)cc1
CC50 [10]: 16.3 µM (active) | EC50 (cells [6]): > 350 µM (not active) | EC50 (cells [7]): > 350 µM (not active)

SMILES: CN1CCCN(Cc2ccccc2C(F)(F)F)CC1
IC50 [3]: 83.3 µM (active)

SMILES: O=C(C[n+]1cccc(C(=O)Nc2ccccc2)c1)c1ccc([N+](=O)[O-])cc1
EC50 [8]: 64.6 µM (active)

SMILES: Oc1ccc(C2=CSC3=NCCN23)cc1O
EC50 [1]: 18.6 µM (active) | EC50 [2]: 70.6 µM (active)

SMILES: Cc1cccc(C(=O)OC(C)CN2CCCC2)c1 (stereo unspecified)
EC50 (cells [6]): > 350 µM (not active) | EC50 (cells [7]): > 350 µM (not active)

SMILES: Cn1cc(S(=O)(=O)Nc2ccc(Br)cc2F)c(=O)n(C)c1=O
IC50 [4]: > 47.1 µM (inactive) | EC50 [5]: > 53 µM (inactive)

SMILES: COc1cc(/C=C/C(=O)OCC(=O)N2CC3(C)CC2CC(C)(C)C3)ccc1O (stereo unspecified)
IC50 [3]: 49.6 µM (active)

SMILES: CCCn1cc2c3c(cccc31)C1CC(C)CN(C)C1C2 (stereo unspecified)
EC50 [1]: 29.6 µM (active) | EC50 [2]: 36 µM (active)

SMILES: COc1ccc(CC(=O)N2CCN(C(=O)Cc3ccc(OC)cc3)CC2)cc1
EC50 (cells [6]): > 350 µM (not active) | EC50 (cells [7]): > 350 µM (not active)

SMILES: COC(=O)C12CCc3c(ccc4cc(OC)ccc34)C1=CC(=O)C2 (stereo unspecified)
IC50 [4]: > 47.1 µM (inactive) | EC50 [5]: > 53 µM (inactive)

SMILES: O=C(O)CCC(=O)Nc1ccc(Br)c(Cl)c1
IC50 [4]: < 0.368 µM (active) | EC50 [5]: > 53 µM (inactive)

SMILES: Cc1cc(C)nc(NNC2=CC(=O)CC(C)(C)C2)n1
EC50 [1]: 10.9 µM (active) | EC50 [2]: 84.6 µM (active)

SMILES: CCOc1cc(/C=N/NC(=O)NN(C)c2ncc(C(F)(F)F)cc2Cl)ccc1O
IC50 [3]: 88.4 µM (active)

SMILES: Cc1ccccc1-c1nc2ccccc2c(=O)n1/N=C/c1ccccc1[N+](=O)[O-]
EC50 (cells [6]): > 350 µM (not active) | EC50 (cells [7]): > 350 µM (not active)

SMILES: CCN(CC)CCNC1=CC(=O)OC12CCCCC2
EC50 (cells [6]): > 350 µM (not active) | EC50 (cells [7]): > 350 µM (not active)

Further lines, results first:

EC50 [1]: > 300 µM (not active) | EC50 [2]: > 300 µM (not active)
SMILES: O=C(O)C(=O)/C(=C\c1ccc(Cl)cc1)c1ccc2ccccc2n1

IC50 [3]: 99.4 µM (active)
SMILES: COc1cccc(CNc2ccc3c(c2)ncn3C)c1OC

EC50 [1]: 8.55 µM (active) | EC50 [2]: 198 µM (active)
SMILES: O=C(NN1C(=O)c2ccccc2NC1c1ccccn1)c1ccc([N+](=O)[O-])cc1 (stereo unspecified)

EC50 [8]: > 260 µM (inactive)
SMILES: Cc1ccc(OCc2ccc(C#N)cc2)c(C(=O)c2cc(C#N)c(=O)n(C3CC3)c2)c1

EC50 [1]: > 300 µM (not active) | EC50 [2]: > 300 µM (not active)
SMILES: COC(=O)c1ccccc1-n1cccc1C(=O)NP(=O)(N1CCOCC1)N1CCOCC1

EC50 [9]: > 195 µM (not active) | EC50 [1]: 41.3 µM (active) | EC50 [2]: 31.6 µM (active)
SMILES: N=c1c(C(=O)NC2CCCC2)cc2c(=O)n3ccccc3nc2n1Cc1ccccc1

IC50 [4]: > 47.1 µM (inactive) | EC50 [5]: > 53 µM (inactive)
SMILES: O=C(O)C1=C[C@@H](c2ccc(Br)cc2)C[C@@H](OCc2ccc(CO)cc2)O1

EC50 [8]: > 260 µM (inactive)
SMILES: CCOc1cc(/C=C2\CCCc3c2nc2ccccc2c3C(=O)O)ccc1OC

IC50 [3]: 43.3 µM (active)
SMILES: CCc1ccccc1N=C(S)NCC1CCN(c2ccc(OC)cc2)C1 (stereo unspecified)

EC50 [1]: > 300 µM (not active) | EC50 [2]: > 300 µM (not active)
SMILES: COc1ccc(-n2c(NNC(C)=O)nc3sc4c(c3c2=O)CCCC4)cc1

EC50 [5]: 12.2 µM (active)
SMILES: N#Cc1c(-c2ccccc2)cc(-c2ccccc2)nc1SCC(=O)NCC(=O)O

EC50 [8]: > 260 µM (inactive)
SMILES: Cc1ccc(CNc2c(C=O)c(O)nc3ccccc23)cc1

IC50 [3]: 221 µM (active)
SMILES: CCOc1ccc(CN2CCN(S(=O)(=O)c3ccc(NC(C)=O)cc3)CC2)cc1

IC50 [4]: > 47.1 µM (inactive) | EC50 [5]: > 53 µM (inactive)
SMILES: COc1ccc(C2CC(c3ccc(Br)cc3)=NN2C(=O)CCC(=O)O)cc1OC (stereo unspecified)
